In data set [1] the target is T1, Cav1.3 L-type Ca channels (Rattus norvegicus, UniProt P27732).
T1 construct: expressed in transfected cells; host or cells: HEK293
Put plainly: FLIPR Fluo-8 calcium assay, Cav1.3 channel inhibition in HEK293 cells. In kind it is cell-based.

For data set [2], the target named is Cav1.2 L-type Ca channels (Oryctolagus cuniculus, UniProt P15381). Briefly: FLIPR Fluo-8 calcium assay, Cav1.2 channel inhibition in HEK293 cells.
Setting [3] is: IC50 (μM) CaV1.3, first library, FLIPR, HEK293, value (±SD).
The mark [4] stands for this setting: IC50 (μM) Cav1.3, Table 4, 12 concentration points (0.1 nM~100 μM) in duplicate.
Setting [5] is: Table 4, Cav1.3 relative to Cav1.2 from IC50 values.
The mark [6] stands for this setting: first library, ratio of IC50 Cav1.2 to Cav1.3.
The mark [7] stands for this setting: IC50 (μM) CaV1.2, first library, FLIPR, HEK293, value (±SD).
Where [8] appears, read: IC50 (μM) Cav1.2, Table 4, 12 concentration points (0.1 nM~100 μM) in duplicate.
[9] abbreviates: IC50 (μM) Cav1.3, second library, FLIPR, HEK293, value (±SD).
Setting [10] is: second library, ratio of IC50 Cav1.2 to Cav1.3.
The mark [11] stands for this setting: IC50 (μM) Cav1.2, second library, FLIPR, HEK293, value (±SD).
Where [12] appears, read: IC50 (μM) Cav1.3, third library, FLIPR, HEK293, value (±SD).
[13] abbreviates: third library, ratio of IC50 Cav1.2 to Cav1.3.
Setting [14] is: IC50 (μM) Cav1.2, third library, FLIPR, HEK293, value (±SD).

Molecules are shown by their SMILES. Where two headings read alike, the source gives them in different places.

Consider 19 molecules from patent publication US20210186970A1, “SELECTIVE CALCIUM CHANNEL ANTAGONISTS” (Northwestern University, priority 2011, published 2021).

Cav1.2 L-type Ca channels, sequence (P15381 whole entry): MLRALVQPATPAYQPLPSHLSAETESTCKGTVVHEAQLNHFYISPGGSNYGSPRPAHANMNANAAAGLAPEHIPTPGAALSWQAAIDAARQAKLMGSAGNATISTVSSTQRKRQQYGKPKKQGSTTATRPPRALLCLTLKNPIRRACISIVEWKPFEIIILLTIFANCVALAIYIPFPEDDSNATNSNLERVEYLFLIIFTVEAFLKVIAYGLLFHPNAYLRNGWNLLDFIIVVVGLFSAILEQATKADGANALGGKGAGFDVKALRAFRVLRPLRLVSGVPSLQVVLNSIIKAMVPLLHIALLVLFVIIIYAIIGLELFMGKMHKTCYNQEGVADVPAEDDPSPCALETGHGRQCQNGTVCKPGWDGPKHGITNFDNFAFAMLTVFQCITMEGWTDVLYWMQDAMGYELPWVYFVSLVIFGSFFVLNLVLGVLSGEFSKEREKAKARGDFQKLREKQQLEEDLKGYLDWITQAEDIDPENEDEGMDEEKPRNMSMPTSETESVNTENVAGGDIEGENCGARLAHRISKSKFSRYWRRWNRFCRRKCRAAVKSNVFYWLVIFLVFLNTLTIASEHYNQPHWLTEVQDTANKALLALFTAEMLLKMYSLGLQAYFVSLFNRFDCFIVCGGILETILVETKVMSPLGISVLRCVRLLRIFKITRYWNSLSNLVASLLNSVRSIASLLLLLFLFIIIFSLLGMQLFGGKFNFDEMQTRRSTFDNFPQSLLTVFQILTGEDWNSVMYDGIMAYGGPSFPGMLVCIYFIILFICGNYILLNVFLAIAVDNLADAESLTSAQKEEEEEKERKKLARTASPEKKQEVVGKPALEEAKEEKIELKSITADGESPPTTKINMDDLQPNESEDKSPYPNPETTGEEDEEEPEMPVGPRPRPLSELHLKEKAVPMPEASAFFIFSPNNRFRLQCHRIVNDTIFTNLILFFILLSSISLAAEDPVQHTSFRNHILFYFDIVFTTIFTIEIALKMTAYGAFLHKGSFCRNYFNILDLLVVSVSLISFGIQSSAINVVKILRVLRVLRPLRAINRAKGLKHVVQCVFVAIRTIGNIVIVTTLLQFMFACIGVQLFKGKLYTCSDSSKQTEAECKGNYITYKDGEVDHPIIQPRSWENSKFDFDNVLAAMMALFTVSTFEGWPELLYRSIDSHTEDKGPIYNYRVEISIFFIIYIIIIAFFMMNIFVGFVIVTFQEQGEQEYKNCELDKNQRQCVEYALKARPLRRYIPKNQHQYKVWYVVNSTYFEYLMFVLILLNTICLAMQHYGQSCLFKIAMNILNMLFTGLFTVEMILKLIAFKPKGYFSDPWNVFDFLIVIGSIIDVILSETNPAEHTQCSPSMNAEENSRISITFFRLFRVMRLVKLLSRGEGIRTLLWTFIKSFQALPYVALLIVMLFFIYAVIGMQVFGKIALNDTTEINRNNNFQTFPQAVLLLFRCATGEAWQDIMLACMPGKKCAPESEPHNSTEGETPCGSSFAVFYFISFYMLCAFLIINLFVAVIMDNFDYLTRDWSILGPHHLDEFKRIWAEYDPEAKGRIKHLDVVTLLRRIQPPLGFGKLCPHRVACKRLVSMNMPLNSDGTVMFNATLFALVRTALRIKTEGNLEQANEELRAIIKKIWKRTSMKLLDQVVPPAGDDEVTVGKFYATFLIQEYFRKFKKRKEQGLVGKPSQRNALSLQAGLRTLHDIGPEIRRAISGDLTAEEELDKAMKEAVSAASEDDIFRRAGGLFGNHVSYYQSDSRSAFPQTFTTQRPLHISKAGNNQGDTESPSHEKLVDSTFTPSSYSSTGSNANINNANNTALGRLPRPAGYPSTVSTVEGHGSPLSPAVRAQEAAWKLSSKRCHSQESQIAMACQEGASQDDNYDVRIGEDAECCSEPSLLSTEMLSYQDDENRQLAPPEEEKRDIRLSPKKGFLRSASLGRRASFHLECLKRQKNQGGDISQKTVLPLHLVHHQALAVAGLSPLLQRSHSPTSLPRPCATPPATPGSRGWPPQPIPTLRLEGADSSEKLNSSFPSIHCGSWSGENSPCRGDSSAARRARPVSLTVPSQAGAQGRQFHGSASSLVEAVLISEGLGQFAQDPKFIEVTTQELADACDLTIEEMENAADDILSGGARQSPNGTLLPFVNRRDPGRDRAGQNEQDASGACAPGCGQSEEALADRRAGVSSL
Cav1.2 L-type Ca channels, sequence (P54284 whole entry partner): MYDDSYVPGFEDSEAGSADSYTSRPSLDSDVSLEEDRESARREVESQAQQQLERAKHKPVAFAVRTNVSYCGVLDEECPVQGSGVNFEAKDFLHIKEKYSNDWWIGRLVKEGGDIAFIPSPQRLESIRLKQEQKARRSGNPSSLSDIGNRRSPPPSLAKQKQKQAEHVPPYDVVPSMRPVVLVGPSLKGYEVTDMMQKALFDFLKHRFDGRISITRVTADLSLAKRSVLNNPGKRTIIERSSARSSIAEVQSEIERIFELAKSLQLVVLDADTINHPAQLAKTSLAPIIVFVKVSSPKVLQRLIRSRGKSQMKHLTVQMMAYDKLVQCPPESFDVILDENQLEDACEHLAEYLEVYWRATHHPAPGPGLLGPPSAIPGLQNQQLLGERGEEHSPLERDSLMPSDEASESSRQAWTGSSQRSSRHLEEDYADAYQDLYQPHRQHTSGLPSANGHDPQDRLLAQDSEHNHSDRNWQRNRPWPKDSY
Cav1.2 L-type Ca channels, sequence (P54289 25-956 partner limits assumed): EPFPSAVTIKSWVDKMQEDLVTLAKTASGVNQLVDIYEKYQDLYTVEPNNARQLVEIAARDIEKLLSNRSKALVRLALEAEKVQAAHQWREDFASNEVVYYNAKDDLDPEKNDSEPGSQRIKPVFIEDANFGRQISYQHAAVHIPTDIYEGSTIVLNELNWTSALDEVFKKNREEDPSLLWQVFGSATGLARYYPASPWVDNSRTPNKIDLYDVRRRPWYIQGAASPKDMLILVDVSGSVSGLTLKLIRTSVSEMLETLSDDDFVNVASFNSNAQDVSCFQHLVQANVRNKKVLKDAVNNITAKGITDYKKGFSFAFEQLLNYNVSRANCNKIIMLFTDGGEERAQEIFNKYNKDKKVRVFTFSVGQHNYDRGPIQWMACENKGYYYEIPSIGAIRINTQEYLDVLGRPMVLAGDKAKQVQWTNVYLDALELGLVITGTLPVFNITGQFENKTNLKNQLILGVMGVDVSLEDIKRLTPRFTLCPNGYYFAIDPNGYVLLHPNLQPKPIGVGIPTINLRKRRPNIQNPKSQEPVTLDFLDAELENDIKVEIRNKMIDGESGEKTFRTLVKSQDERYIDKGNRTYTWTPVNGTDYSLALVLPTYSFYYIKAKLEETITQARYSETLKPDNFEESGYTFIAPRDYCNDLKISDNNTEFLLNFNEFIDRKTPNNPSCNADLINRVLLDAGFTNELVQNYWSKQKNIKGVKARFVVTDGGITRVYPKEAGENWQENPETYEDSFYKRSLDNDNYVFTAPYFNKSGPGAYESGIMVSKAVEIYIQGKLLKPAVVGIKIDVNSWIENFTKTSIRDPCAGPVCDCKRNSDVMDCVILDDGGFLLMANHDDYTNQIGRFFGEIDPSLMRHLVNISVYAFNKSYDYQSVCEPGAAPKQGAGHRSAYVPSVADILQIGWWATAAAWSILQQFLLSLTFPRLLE
Cav1.2 L-type Ca channels, sequence (P54289 957-1103 partner limits assumed): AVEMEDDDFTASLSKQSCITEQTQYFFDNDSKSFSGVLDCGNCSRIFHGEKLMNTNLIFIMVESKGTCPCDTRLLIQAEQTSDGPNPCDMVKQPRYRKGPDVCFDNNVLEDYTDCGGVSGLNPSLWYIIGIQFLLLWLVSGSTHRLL

In turn, `O=C1CC(=O)N(C2CCCCC2)C(=O)N1CCc1ccc(Cl)cc1` [Compound 1, N-(4-chlorophenethyl)-N′-cyclohexyl-pyrimidine-2,4,6-(1H,3H,5H)-trione] came in with a melting point of 146 to 148 °C. Besides, the IC50 in data set [1] (setting [3]) was 1.1 µM. Besides, in data set [1] (setting [4]), the IC50 came out at 1.1 µM. For the same molecule, the Selectivity in data set [1] (setting [5]) was found to be 35. In data set [1] (setting [6]), the Selectivity worked out at 35.1. For the same molecule, the IC50 in data set [2] (setting [7]) was found to be 38.8 µM. In addition, the IC50 in data set [2] (setting [8]) amounted to 38.8 µM.

Molecule `O=C1CC(=O)N(C2CCCC2)C(=O)N1CCCCc1ccccc1` [Compound 2, N-cyclopentyl-N′-(4-phenylbutyl)-pyrimidine-2,4,6-(1H,3H,5H)-trione] came in with a melting point of 85 to 87 °C. Moreover, the IC50 in data set [1] (setting [3]) turned out to be 1.3 µM. For the same molecule, the half-inhibitory concentration (IC50) in data set [1] (setting [4]) came out at 1.3 µM. The Selectivity in data set [1] (setting [5]) was 34. Further, the Selectivity in data set [1] (setting [6]) came out at 33.7. For the same molecule, in data set [2] (setting [7]), the IC50 was 43.8 µM. In addition, the IC50 in data set [2] (setting [8]) is 43.8 µM.

In the case of `O=C1CC(=O)N(C2CCCCC2)C(=O)N1CCc1cccc(Cl)c1` [Compound 3, N-(3-chlorophenethyl)-N′-cyclohexyl-pyrimidine-2,4,6-(1H,3H,5H)-trione], the melting point lay within 153 to 154 °C. In data set [1] (setting [3]), the IC50 turned out to be 1.4 µM. Moreover, in data set [1] (setting [4]), the IC50 was determined as 1.4 µM. Moreover, in data set [1] (setting [5]), the Selectivity is 38. In addition, in data set [1] (setting [6]), the Selectivity is listed as 38.0. Also, the IC50 in data set [2] (setting [7]) turned out to be 53.1 µM. In data set [2] (setting [8]), the IC50 came out at 53.1 µM.

For the molecule `Cc1cccc(CCN2C(=O)CC(=O)N(C3CCCCC3)C2=O)c1` [Compound 4, N-cyclohexyl-N′-(3-methylphenethyl)-pyrimidine-2,4,6-(1H,3H,5H)-trione], the melting point fell in the range of 182 to 183 °C. Further, the IC50 in data set [1] (setting [4]) worked out at 2.2 µM. In addition, the IC50 in data set [1] (setting [9]) was determined as 2.2 µM. Further, in data set [1] (setting [5]), the Selectivity amounted to 35. For the same molecule, the Selectivity in data set [1] (setting [10]) is 35.4. The IC50 in data set [2] (setting [8]) is 77.1 µM. Besides, the half-inhibitory concentration (IC50) in data set [2] (setting [11]) amounted to 77.1 µM.

`O=C1CC(=O)N(C2CCCCC2)C(=O)N1CCc1cccc(Br)c1` [Compound 5, N-(3-bromophenethyl)-N′-cyclohexyl-pyrimidine-2,4,6-(1H,3H,5H)-trione] registered a melting point of 154 to 155 °C. Also, the IC50 in data set [1] (setting [4]) turned out to be 1.3 µM. Besides, in data set [1] (setting [9]), the IC50 amounted to 1.3 µM. Besides, the Selectivity in data set [1] (setting [5]) is reported as 34. In data set [1] (setting [10]), the Selectivity amounted to 34.0. Besides, the IC50 in data set [2] (setting [8]) was determined as 45.8 µM. Moreover, the IC50 in data set [2] (setting [11]) turned out to be 45.8 µM.

Regarding `O=C1CC(=O)N(C2CCCCC2)C(=O)N1CCc1cccc(C(F)(F)F)c1` [Compound 6, N-cyclohexyl-N′-(3-thrifluoromethylphenethyl)-pyrimidine-2,4,6-(1H,3H,5H)-trione], the melting point lay within 105 to 107 °C. The IC50 in data set [1] (setting [4]) is 1.3 µM. The IC50 in data set [1] (setting [9]) was found to be 1.3 µM. Further, in data set [1] (setting [5]), the Selectivity amounted to 20. Further, in data set [1] (setting [10]), the Selectivity was found to be 20.3. Further, the IC50 in data set [2] (setting [8]) turned out to be 25.8 µM. Further, the IC50 in data set [2] (setting [11]) was 25.8 µM.

`O=C1CC(=O)N(C2CCCC2)C(=O)N1CCc1cccc(C(F)(F)F)c1` [Compound 7, N-cyclopentyl-N′-(3-thrifluoromethylphenethyl)-pyrimidine-2,4,6-(1H,3H,5H)-trione] had a melting point of 97 to 98 °C. Besides, the IC50 in data set [1] (setting [4]) was found to be 1.1 µM. Further, the IC50 in data set [1] (setting [12]) was 1.1 µM. Further, in data set [1] (setting [5]), the Selectivity was 305. Moreover, the Selectivity in data set [1] (setting [13]) turned out to be 305.4. The concentration for half-maximal inhibition (IC50) in data set [2] (setting [8]) was 326 µM. For the same molecule, in data set [2] (setting [14]), the IC50 was determined as 326 µM.

For the molecule `O=C1CC(=O)N(c2cccc(F)c2)C(=O)N1CCc1cccc(Cl)c1` [Compound 103], the IC50 turned out to be 18.6 µM in data set [1] (setting [12]) and 9.7 µM in data set [2] (setting [14]). For the same molecule, in data set [1] (setting [13]), the Selectivity is 0.5.

`CC(C)(C)N1C(=O)CC(=O)N(CCc2cccc(Cl)c2)C1=O` [Compound 105]: the half-maximal inhibitory concentration (IC50) worked out at 10.5 µM in data set [1] (setting [12]) and 7.2 µM in data set [2]. The Selectivity in data set [1] (setting [13]) came out at 0.7.

Regarding `CC(C)(C)N1C(=O)CC(=O)N(CCc2cccc(C(F)(F)F)c2)C1=O` [Compound 106], the IC50 in data set [1] (setting [12]) is 1.1 µM; in data set [2] (setting [14]), 6.1 µM. Further, the Selectivity in data set [1] (setting [13]) was found to be 5.7.

For the molecule `CCC(C)N1C(=O)CC(=O)N(CCc2cccc(Cl)c2)C1=O` (stereo not shown) [Compound 107], the concentration for half-maximal inhibition (IC50) in data set [1] (setting [12]) was found to be 1.9 µM; in data set [2], 45.4 µM. In addition, the Selectivity in data set [1] (setting [13]) worked out at 23.6.

Consider `CCC(C)N1C(=O)CC(=O)N(CCc2cccc(C(F)(F)F)c2)C1=O` (stereo not shown) [Compound 108], for which the IC50 in data set [1] (setting [12]) stood at 3.4 µM; in data set [2] (setting [14]) it was 35.9 µM. Moreover, the Selectivity in data set [1] (setting [13]) was 10.5.

Consider `O=C1CC(=O)N(CC2CCCCC2)C(=O)N1CCc1cccc(Cl)c1` [Compound 109], for which the IC50 amounted to 1.5 µM in data set [1] (setting [12]) and 44.6 µM in data set [2] (setting [14]). Moreover, the Selectivity in data set [1] (setting [13]) is 30.5.

Consider `O=C1CC(=O)N(CC2CCCCC2)C(=O)N1CCc1ccc(Cl)cc1` [Compound 110], for which the figures for the IC50 in data set [1] (setting [12]) and in data set [2] (setting [14]) were 1.7 µM and 46.8 µM, respectively. The Selectivity in data set [1] (setting [13]) was found to be 27.3.

Consider `O=C1CC(=O)N(CC2CCCCC2)C(=O)N1CCc1cccc(C(F)(F)F)c1` [Compound 111], for which the IC50 in data set [1] (setting [12]) turned out to be 0.9 µM; in data set [2] (setting [14]), 20.4 µM. Besides, the Selectivity in data set [1] (setting [13]) was found to be 22.1.

Turning to `O=C1CC(=O)N(C23CC4CC(CC(C4)C2)C3)C(=O)N1CCc1ccc(Cl)cc1` [Compound 114], the concentration for half-maximal inhibition (IC50) stood at 3.2 µM in data set [1] (setting [12]) and 2.6 µM in data set [2] (setting [14]). The Selectivity in data set [1] (setting [13]) amounted to 0.8.

Take `O=C1CC(=O)N(C23CC4CC(CC(C4)C2)C3)C(=O)N1CCc1cccc(Cl)c1` [Compound 115]: the IC50 in data set [1] (setting [12]) is 2.6 µM; in data set [2] (setting [14]), 1.9 µM. Besides, the Selectivity in data set [1] (setting [13]) worked out at 0.7.

As to `O=C1CC(=O)N(C2C3CC4CC(C3)CC2C4)C(=O)N1CCc1ccc(Cl)cc1` (stereo not shown) [Compound 116], the IC50 is 2.5 µM in data set [1] (setting [12]) and 40.4 µM in data set [2] (setting [14]). The Selectivity in data set [1] (setting [13]) worked out at 18.3.

Turning to `O=C1CC(=O)N(C2C3CC4CC(C3)CC2C4)C(=O)N1CCc1cccc(Cl)c1` (stereo not shown) [Compound 117], the concentration for half-maximal inhibition (IC50) came to 1.6 µM in data set [1] (setting [12]) and 3.1 µM in data set [2] (setting [14]). The Selectivity in data set [1] (setting [13]) is listed as 2.0.
